Measurements: US20250032490A1, “THERAPEUTIC REGIMENS FOR TREATMENT OF PAROXYSMAL NOCTURNAL HEMOGLOBINURIA” (Achillion Pharmaceuticals, Inc., priority 2017, published 2025)

How the values were obtained:
rabbit erythrocytes = assay: CAP-mediated hemolysis assay with rabbit erythrocytes; format: cell-based; details: Oryctolagus cuniculus, Erythrocyte; AP activity in vitro
[1] = Phase 2 study in PNH subjects: reticulocyte count; format: in vivo, human; details: Compound 1 100 mg TID + IV eculizumab
Description: The starting dose of compound 1 is based upon group assignment. The Group 1 dose is 100mg three times daily (TID). The Group 2 dose is 150 mg TID. The Group 3 dose is 200 mg TID. The Group 4 dose will receive the optimal dose determined from Groups 1-3.
All doses are taken approximately 15-30 minutes after completion of a meal or snack.
This will be followed by a long-term extension phase.
2 subjects in the first dose level of 100 mg TID have been completed and data collected through 4 weeks. Data collected include lactate dehydrogenase (LDH) levels, hemoglobin levels, reticulocytes, PNH red blood cells (Type III) percentage, C3 Fragment Deposition percentage, and bilirubin levels and their changes from baseline.
A reticulocyte count is a pharmacodynamic marker that is measured from blood drawn on Day 1, Week 1, Week 2, and Week 4 (FIGS. 15A & 15B and Table 17). A reticulocyte count measures the number of immature red blood cells in a blood sample. People who have PNH may have elevated reticulocyte counts because their bone marrow is producing a lot of new red blood cells.

**Q.** Which results are given for CC(=O)c1nn(CC(=O)N2C[C@H](F)C[C@H]2C(=O)Nc2cccc(Br)n2)c2ccc(-c3cnc(C)nc3)cc12 [Compound 1, (2S,4R)-1-(2-(3-acetyl-5-(2-methylpyrimidin-5-yl)-1H-indazol-1-yl)acetyl)-N-(6-bromopyridin-2-yl)-4-fluoropyrrolidine-2-carboxamide]?
**A.** IC50 (rabbit erythrocytes): 27 nM; RETICULOCYTES Observed ([1]; subject 003-001, DAY 1 (baseline)): 159 10^9/L; RETICULOCYTES CFB (change from baseline) ([1]; subject 003-001, DAY 1): 0 10^9/L; RETICULOCYTES CFB (change from baseline) ([1]; subject 003-001, WEEK 1): −39 10^9/L; RETICULOCYTES Observed ([1]; subject 003-001, WEEK 1): 120 10^9/L; RETICULOCYTES CFB (change from baseline) ([1]; subject 003-001, WEEK 2): −34 10^9/L; RETICULOCYTES Observed ([1]; subject 003-001, WEEK 2): 125 10^9/L; RETICULOCYTES CFB (change from baseline) ([1]; subject 003-001, WEEK 4): −64 10^9/L; RETICULOCYTES Observed ([1]; subject 003-001, WEEK 4): 95 10^9/L; RETICULOCYTES Observed ([1]; subject 003-002, DAY 1 (baseline)): 250 10^9/L; RETICULOCYTES CFB (change from baseline) ([1]; subject 003-002, DAY 1): 0 10^9/L; RETICULOCYTES CFB (change from baseline) ([1]; subject 003-002, WEEK 1): −106 10^9/L; RETICULOCYTES Observed ([1]; subject 003-002, WEEK 1): 144 10^9/L; RETICULOCYTES CFB (change from baseline) ([1]; subject 003-002, WEEK 2): −85 10^9/L; RETICULOCYTES Observed ([1]; subject 003-002, WEEK 2): 165 10^9/L; RETICULOCYTES CFB (change from baseline) ([1]; subject 003-002, WEEK 4): −118 10^9/L; RETICULOCYTES Observed ([1]; subject 003-002, WEEK 4): 132 10^9/L
